Reference: patent publication US20240390446A1, “COMPOSITIONS AND METHODS FOR TREATING OR PREVENTING INFLAMMATORY DISEASES INCLUDING DIABETES AND THYROID DISEASES” (priority 2021, published 2024)

Test: Case report: blood glucose levels in pregnant with gestational diabetes given sesame oil and Nigella sativa oil
Type: in vivo, human
Method: A pregnant person diagnosed with gestational diabetes and treated with […] was administered daily with 5 ml sesame oil 100% w/v ([…]) and then co-administered with 5 ml sesame oil 100% w/v (Naissance) and 5 ml 100% w/v Nigella sativa oil (Better Flex). During oil treatment glucamin was not administered.
Blood glucose levels (mg/dL) were determined at the indicated hours.

NC(=O)CC[C@H](N)C(=O)O [glutamin]
Blood glucose levels (6 AM, 10 Sep. 2020): 172 mg/dL | Blood glucose levels (6 AM, 11 Sep. 2020): 125 mg/dL | Blood glucose levels (6 AM, 12 Sep. 2020): 101 mg/dL | Blood glucose levels (6 AM, 13 Sep. 2020): 113 mg/dL | Blood glucose levels (6 AM, 14 Sep. 2020): 94 mg/dL | Blood glucose levels (6 AM, 15 Sep. 2020): 158 mg/dL | Blood glucose levels (6 AM, 16 Sep. 2020): 148 mg/dL | Blood glucose levels (6 AM, 17 Sep. 2020): 99 mg/dL | Blood glucose levels (6 AM, 18 Sep. 2020): 94 mg/dL | Blood glucose levels (11 AM, 10 Sep. 2020): 154 mg/dL | Blood glucose levels (11 AM, 11 Sep. 2020): 109 mg/dL | Blood glucose levels (11 AM, 12 Sep. 2020): 88 mg/dL | Blood glucose levels (11 AM, 13 Sep. 2020): 84 mg/dL | Blood glucose levels (11 AM, 14 Sep. 2020): 90 mg/dL | Blood glucose levels (11 AM, 15 Sep. 2020): 159 mg/dL | Blood glucose levels (11 AM, 17 Sep. 2020): 124 mg/dL | Blood glucose levels (11 AM, 18 Sep. 2020): 84 mg/dL | Blood glucose levels (15 PM, 10 Sep. 2020): 122 mg/dL | Blood glucose levels (15 PM, 11 Sep. 2020): 126 mg/dL | Blood glucose levels (15 PM, 12 Sep. 2020): 106 mg/dL | Blood glucose levels (15 PM, 13 Sep. 2020): 125 mg/dL | Blood glucose levels (15 PM, 14 Sep. 2020): 134 mg/dL | Blood glucose levels (15 PM, 15 Sep. 2020): 98 mg/dL | Blood glucose levels (15 PM, 16 Sep. 2020): 154 mg/dL | Blood glucose levels (15 PM, 17 Sep. 2020): 90 mg/dL | Blood glucose levels (15 PM, 18 Sep. 2020): 89 mg/dL | Blood glucose levels (15 PM, 21 Sep. 2020): 109 mg/dL | Blood glucose levels (21 PM, 10 Sep. 2020): 97 mg/dL | Blood glucose levels (21 PM, 11 Sep. 2020): 103 mg/dL | Blood glucose levels (21 PM, 12 Sep. 2020): 95 mg/dL | Blood glucose levels (21 PM, 13 Sep. 2020): 80 mg/dL | Blood glucose levels (21 PM, 14 Sep. 2020): 125 mg/dL | Blood glucose levels (21 PM, 15 Sep. 2020): 83 mg/dL | Blood glucose levels (21 PM, 16 Sep. 2020): 88 mg/dL | Blood glucose levels (21 PM, 17 Sep. 2020): 77 mg/dL | Blood glucose levels (21 PM, 18 Sep. 2020): 84 mg/dL | Blood glucose levels (21 PM, 21 Sep. 2020): 74 mg/dL
